From US20240343699A1, “DERIVATIVES OF SUBSTITUTED MORPHOLINES AND USES THEREOF” (Supernus Pharmaceuticals, Inc., priority 2023, published 2024)

Assays:
[1] = Stability in human gut microbiota (fecal matter); type: in vitro ADME; conditions: pH 6 and 7.4, all time points
Experimental: (§1) Stability in Rat and Human Gut Microbiota. Rat fecal material was obtained and weighed. One capsule of the raw probiotics was crushed and weighed prior to use. The weighed samples were then solubilized in PBS at pH 6.0 and 7.4 to extract microorganisms. The samples were centrifuged at 18,000×g for 10 min to remove particulates and the supernatant was used to evaluate test article stability. An aliquot (50 μL) of the COMPOUND A stock solution was added to the fecal extract (final concentration 0.5 mM) and allowed to incubate at 37° C. Aliquots were collected at 0, 15, 30, 60, and 120 min and analyzed by LC/MS/MS to determine stability of the parent molecule. The collected sample was quenched in acetonitrile/0.1% formic acid mixture.

human red blood cells = assay: Hemolysis in human blood; type: cell-based
Experimental: Stability of Test Articles at Different pH Values. 10 mM stock solutions of COMPOUND A were prepared in DMSO. From this stock solution, a single concentration in a 10 μL aliquot was added to three fluid matrices: SGF at pH 2.0 (gastric), SIF at pH 6.0 (upper intestine), and PBS at 7.4 (systemic). The final volume was 1 mL (0.1 mM). The preparations were then incubated at 37° C. and samples were collected at 0, 15, 30, 60, and 120 min for analysis of parent material by LC/MS/MS. The collected sample was quenched in acetonitrile/0.1% formic acid mixture. Red Blood Cell (RBC): Human and rat blood were centrifuged to separate out red blood cells at […] for 15 min. The upper plasma level was aspirated with a micropipette and placed in a bleach solution for disposal. The RBC pellet was resuspended in sterile isotonic saline. The pellet was gently resuspended by rocking the tube. […]
(§2) Stability in Human and Rat Red Blood cells and Hemolysis. […] After centrifugation, 70 μL of supernatant (without disturbing the pellet) was transferred to a clean and clear polystyrene flat bottomed 96-well plate and the absorbance of the sample at a single wavelength was measured using a Bio Tech Synergy Hl Plate Reader at a wavelength of 410 nm. […] Stability was measured by measuring loss of parent compound using LC/MS/MS.

[2] = Stability in rat gut microbiota (fecal matter); type: in vitro ADME; conditions: pH 6 and pH 7.4, 0.5 mM
Experimental: as §1

rat red blood cells = assay: Hemolysis in rat blood; type: cell-based
Experimental: Stability of Test Articles at Different pH Values. 10 mM stock solutions of COMPOUND A were prepared in DMSO. From this stock solution, a single concentration in a 10 μL aliquot was added to three fluid matrices: SGF at pH 2.0 (gastric), SIF at pH 6.0 (upper intestine), and PBS at 7.4 (systemic). The final volume was 1 mL (0.1 mM). The preparations were then incubated at 37° C. and samples were collected at 0, 15, 30, 60, and 120 min for analysis of parent material by LC/MS/MS. The collected sample was quenched in acetonitrile/0.1% formic acid mixture. Red Blood Cell (RBC): Human and rat blood were centrifuged to separate out red blood cells at […] for 15 min. The upper plasma level was aspirated with a micropipette and placed in a bleach solution for disposal. The RBC pellet was resuspended in sterile isotonic saline. The pellet was gently resuspended by rocking the tube. The sample was then centrifuged again to collect the RBC pellet and then resuspended and washed one more time following the same procedure. A total of three was done. Following the last wash and centrifugation, the RBCs were resuspended with PBS; and mixed by inversion. Aliquots of the resuspended and washed RBCs were then placed into 4 reaction tubes. These tubes were centrifuged to collect the RBCs. The fluid level was marked on each tube, then the supernatant was aspirated off and the cells resuspended with room temperature PBS pH 7.4 to the original mark. An aliquot of the RBC suspension was added to four sterile tubes containing PBS pH 7.4 at room temperature.
as §2

CCOc1ccccc1OC[C@@H]1CN(C(=O)OC(C)OC(=O)[C@@H](N)C(C)C)CCO1 (stereo partly drawn) [COMPOUND A]
amount of parent compound in human fecal matter [1]: ~100% | hemolysis (% RBC lysis) (human red blood cells; human blood, 25, 50, 100 μM, 1 hr): no detectable hemolysis | EC50 (% RBC lysis) (human red blood cells; human blood, 60 min exposure): outside the concentration range tested | stability in rat fecal matter [2]: time-dependent decrease in the amount of parent compound | hemolysis (% RBC lysis) (rat red blood cells; rat blood, 25, 50, 100 μM, 1 hr): no detectable hemolysis | EC50 (% RBC lysis) (rat red blood cells; rat blood, 60 min exposure): outside the concentration range tested
